These are literature values, as cited in paper PMC12308805, “Ultrahigh-Throughput Virtual Screening Strategies against PPI Targets: A Case Study of STAT Inhibitors” (Journal of Chemical Information and Modeling, 2025).

The structures appear in SMILES notation.

One data set concerns STAT3. The note with it: sheet 6QHD_actives_decoys; retrospective screening set for STAT3 SH2 domain (PDB 6QHD); […]; ref DUD-E; cited from earlier work.
With `C[C@@H](O)CC(=O)SCCNC(=O)CCNC(=O)[C@@H](O)C(C)(C)CO[P@](=O)(O)O[P@](=O)(O)OC[C@H]1O[C@@H](n2cnc3c(N)ncnc32)[C@@H](O)[C@H]1OP(=O)(O)O` [Decoy404], the Type entry is reported as “Inactive (Decoy)”.

In the case of `Nn1c(SCC(=O)Nc2ccc(S(=O)(=O)Nc3nccs3)cc2)nnc1-c1ccncc1` [Decoy406], the Type entry was “Inactive (Decoy)”.

Regarding `CCOC(=O)[C@@](NC(=O)Nc1ccc(S(=O)(=O)Nc2nnc(SCC)s2)cc1)(c1ccc(F)cc1)C(F)(F)F` [Decoy418], the Type result is on record as “Inactive (Decoy)”.

In the case of `O=C(CCC(=O)Nc1ccc(S(=O)(=O)Nc2nccs2)cc1)Nc1ccc(S(=O)(=O)Nc2nccs2)cc1` [Decoy422], the Type result is “Inactive (Decoy)”.

Regarding `COc1cc(NS(=O)(=O)c2ccc(NC(=O)CCCCC(=O)Nc3ccc(S(=O)(=O)/N=c4/cc(OC)nc(OC)[nH]4)cc3)cc2)nc(OC)n1` [Decoy429], the Type entry is “Inactive (Decoy)”.

The data set is the same for the next values; noted with them: sheet 6QHD_actives_decoys; retrospective screening set for STAT3 SH2 domain (PDB 6QHD); decoys generated with DUD-E and presumed inactive, not tested; ref DUD-E; cited from earlier work.
For `CCOC(=O)C1=C(CNc2cc(S(=O)(=O)N(CC)CC)ccc2OC)NC(=O)N[C@H]1c1cc(C)ccc1C` [Decoy395], the Type result is “Inactive (Decoy)”.

Take `COc1cc([C@@H]2OC[C@@]3(O)[C@@H](c4ccc(O[C@@H]5O[C@H](CO)[C@@H](O)[C@H](O)[C@H]5O)c(OC)c4)OC[C@@]23O)ccc1O` [Decoy396]: the Type result is listed as “Inactive (Decoy)”.

As to `O=C(O)c1[nH]nc(-c2ccc(O[C@H]3O[C@@H](CO)[C@@H](O)[C@@H](O)[C@H]3O)cc2O)c1-c1ccc2c(c1)OCCO2` [Decoy397], the Type result was “Inactive (Decoy)”.

As to `CCN(CC)S(=O)(=O)c1ccc(NC(=O)CSc2nnc(N/N=C/c3cccc(O)c3)n2N)cc1` [Decoy398], the Type entry was “Inactive (Decoy)”.

Consider `Cc1cc(C)nc(N/C(=N\C(=S)NCCCN2CCOCC2)Nc2ccc(Cn3cncn3)cc2)n1` [Decoy399], for which the Type result is “Inactive (Decoy)”.

On to `NC(=O)CN(CC(N)=O)c1ccc(F)cc1OCCOc1cc(F)ccc1N(CC(N)=O)CC(N)=O` [Decoy400], for which the Type entry is given as “Inactive (Decoy)”.

For `CCOC(=O)CNS(=O)(=O)c1cc(-c2nnc(Nc3ccc(OCC(=O)NC)cc3)c3ccccc23)ccc1C` [Decoy401], the Type result is “Inactive (Decoy)”.

Turning to `Nc1ncnc2c1ncn2[C@@H]1O[C@@H](CO[P@@](=O)(O)O[P@@](=O)(O)OC[C@H](O)[C@H](O)[C@H](O)C=O)[C@@H](O)[C@H]1O` [Decoy402], the Type result is “Inactive (Decoy)”.

On to `Nc1ncnc2c1ncn2[C@H]1O[C@@H](CO[P@@](=O)(O)O[P@@](=O)(O)OC[C@H](O)[C@H](O)[C@H](O)C=O)[C@@H](O)[C@@H]1O` [Decoy403], for which the Type entry was “Inactive (Decoy)”.

Consider `CC(=O)N[C@@H]1[C@@H](OC(C)=O)[C@H](OC(C)=O)[C@@H](COC(C)=O)O[C@H]1Sc1nnc(COc2ccccc2C)n1C1CCCC1` [Decoy405], for which the Type entry is on record as “Inactive (Decoy)”.

Take `CC(=O)O[C@H]1[C@@H](O)[C@H](CO)O[C@H](O[C@@H](/C=N\C23CC4CC(CC(C4)C2)C3)[C@@H](CO)O[C@H](O)/C=N/C23CC4CC(CC(C4)C2)C3)[C@@H]1O` [Decoy407]: the Type result is reported as “Inactive (Decoy)”.

On to `CC(=O)O[C@@H]1[C@@H](O)[C@@H](O[C@@H](/C=N\C23CN4CN(CN(C4)C2)C3)[C@@H](CO)O[C@H](O)/C=N/C23CN4CN(CN(C4)C2)C3)O[C@@H](CO)[C@H]1O` [Decoy408], for which the Type result is given as “Inactive (Decoy)”.

As for `CC1=C(/C(O)=N/c2ccc(S(N)(=O)=O)cc2)[C@H](c2ccco2)C(C#N)=C(SCC(=O)Nc2cccc(C(F)(F)F)c2)N1` [Decoy409], the Type result was “Inactive (Decoy)”.

For the compound `CC(=O)O[C@@H]1[C@@H](O)[C@@H](O[C@@H](C/N=C/c2ccc(O)c3ccccc23)[C@@H](CO)O[C@H](O)C/N=C/c2ccc(O)c3ccccc23)O[C@@H](CO)[C@H]1O` [Decoy410], the Type entry is reported as “Inactive (Decoy)”.

Consider `COc1c([C@@H]2OC[C@H](OC(C)=O)[C@@H](OC(C)=O)[C@H]2OC(C)=O)c(O)cc2oc(-c3ccc(O[C@H]4O[C@@H](CO)[C@@H](O)[C@@H](O)[C@H]4O)cc3)cc(=O)c12` [Decoy411], for which the Type result was “Inactive (Decoy)”.

Regarding `COc1ccc(N([C@@H](C)C(=O)Nc2ccc(S(=O)(=O)Nc3ccc(Cl)c(C(F)(F)F)c3)cc2)S(C)(=O)=O)cc1` [Decoy412], the Type result is given as “Inactive (Decoy)”.

As for `CC(=O)OC[C@@H]1O[C@H](O)[C@H](OC(C)=O)[C@H](OC(C)=O)[C@@H]1O[C@@H]1O[C@H](COC(C)=O)[C@@H](O)[C@H](OC(C)=O)[C@@H]1OC(C)=O` [Decoy413], the Type result was “Inactive (Decoy)”.

As for `CCSc1nnc(/N=C(\O)CSc2n[nH]c(N/N=C/c3cn(C)nc3C)n2)s1` [Decoy414], the Type result is reported as “Inactive (Decoy)”.

As for `CCCCn1nc(NC(=O)c2cc(OCC)c(OCC)c(OCC)c2)c2cc3cc(C)ccc3nc21` [Decoy415], the Type entry is listed as “Inactive (Decoy)”.

On to `CCN(CC)CCCNC(=S)N(CCN1CCOCC1)Cc1cc2cc3c(cc2[nH]c1=O)OCCO3` [Decoy416], for which the Type entry was “Inactive (Decoy)”.

As for `CC(C)(CC(=O)O)CC(=O)N1Cc2nc[nH]c2C[C@H]1c1nc(-c2ccc(F)c(Cl)c2)no1` [Decoy417], the Type result is on record as “Inactive (Decoy)”.

In the case of `CCCCCCCCCC(=O)O[C@H]1[C@@H](O[C@@]2(CO)O[C@@H](CO)[C@@H](O)[C@H]2O)O[C@@H](CO)[C@@H](OC(=O)C(C)C)[C@@H]1OC(=O)C(C)C` [Decoy419], the Type result was “Inactive (Decoy)”.

For `CCCCCCCCCC(=O)O[C@@H]1[C@@H](O[C@@]2(CO)O[C@@H](CO)[C@@H](O)[C@H]2O)O[C@@H](CO)[C@@H](OC(=O)C(C)C)[C@H]1OC(=O)C(C)C` [Decoy420], the Type entry is “Inactive (Decoy)”.

Regarding `O=C(CCSc1n[nH]c(N/N=C/c2cccc(Br)c2)n1)Nc1ccccc1[N+](=O)[O-]` [Decoy421], the Type entry is reported as “Inactive (Decoy)”.

With `CCCCCOc1ccc([C@@H]2C(C(=O)c3c(C)nc4ccccn34)=C(O)C(=O)N2CCN(C)C)cc1OCC` [Decoy423], the Type result is reported as “Inactive (Decoy)”.

Consider `Cc1ccc(S(=O)(=O)OC[C@H](OS(=O)(=O)c2ccc(C)cc2)[C@H](O)[C@H](O)[C@@H](COS(=O)(=O)c2ccc(C)cc2)OS(=O)(=O)c2ccc(C)cc2)cc1` [Decoy424], for which the Type result is recorded as “Inactive (Decoy)”.

For `CC(=O)O[C@H]([C@H](OC(C)=O)[C@H](OC(C)=O)C(=O)NC1CCCCCC1)[C@H](OC(C)=O)C(=O)NC1CCCCCC1` [Decoy425], the Type result is listed as “Inactive (Decoy)”.

Consider `CC(=O)O[C@H]([C@@H](OC(C)=O)[C@H](OC(C)=O)C(=O)NC1CCCCCC1)[C@H](OC(C)=O)C(=O)NC1CCCCCC1` [Decoy426], for which the Type entry is reported as “Inactive (Decoy)”.

In the case of `COC(=O)c1sc(NC(=O)CCCS(=O)(=O)c2nc(-c3ccccc3OC)cc(C(F)(F)F)n2)c(C(N)=O)c1C` [Decoy427], the Type entry was “Inactive (Decoy)”.

With `O=c1c(-c2ccc(O[C@@H]3O[C@H](CO)[C@@H](O)[C@H](O)[C@H]3O)cc2)coc2c(CN3CCCC3)c(O)c(CN3CCCC3)c(O)c12` [Decoy428], the Type result is “Inactive (Decoy)”.

Take `Cc1ccc(N(C[C@H](O)[C@@H](O)[C@H](O)CO)/N=N/c2cccc(S(=O)(=O)O)c2)cc1C` [Decoy430]: the Type entry was “Inactive (Decoy)”.

On to `CCN[C@@H](c1ccc(I)cc1)c1ccc(OC)c(Br)c1` [Decoy431], for which the Type result is “Inactive (Decoy)”.
